These results are taken from patent US20220228120A1, “Cardiomyocyte Compositions and Use Thereof” (UNIVERSITY HEALTH NETWORK, priority 2019, published 2022).

Common to all, as to format: cell-based, human
One test concerns FAO-related genes. The test is described as follows: RT-qPCR of FAO-related, mitochondrial and maturation genes in day 32 compact cardiomyocytes. Here is the method:
(§1) Total RNA from samples was isolated using RNAqueous™-micro Kit including RNase-free DNase treatment (invitrogen). RNA from dissected ventricular and atrial tissue of human fetal hearts was isolated using the TRIzol® method (ThermoFisher) and treated with DNase (Ambion®). Isolated RNA was reverse transcribed into cDNA using oligo (dT) primers and random hexamers and iScript™ Reverse Transcriptase (ThermoFisher). QRT-PCR was performed on an EP Real-Plex MasterCycler® (Eppendorf®) using QuantiFast® SYBR Green PCR kit (QIAGEN). The copy number of each gene relative to the house keeping gene TBP.

Test [1] relates to HEY2, MYCN, ANF, BMP10 expression. The test is described as follows: RT-qPCR of compact and trabecular markers after 6 days with factors. The following applies: factors day 10-16. Here is the method:
as §1
For these studies, we used our previously published protocol to generate cardiomyocytes (Lee, supra). […] Using this timeframe as an indication of the proliferative stage of ventricular development, between days 10 and 16 of differentiation, we added the small molecule GSK-3 inhibitor CHIR-99021 (“CHIR”; a WNT pathway agonist), or IGF2, or both, to the day 10 cell population (FIG. 1D). As a control, we added neuregulin 1 (NRG) to the cultures as it promotes the development of the trabecular myocardium in the developing heart (see, e.g., Del Monte-Nieto et al., Nature (2018) 557(7705):439-45; and Odiete et al., Circ Res. (2012) 111(10):1376-85). The cells were cultured with these factors for 6 days. The cells were then harvested, counted, and analyzed for expression of compact and trabecular genes by RT-qPCR. […] The addition of both factors promoted the greatest expansion in cell number, resulting in a 2-fold increase. […] It had little effect on HEY2, which was already expressed at reasonable levels within the population. IGF2 signaling had no effect on the expression of these genes. Addition of NRG reduced the expression of HEY2 and increased the expression of ANF, indicative of specification of a trabecular fate.
On the technique in general: Real-time PCR tracks product formation cycle by cycle.

Test [2] relates to hPSC-derived ventricular cardiomyocytes. The test is described as follows: Cardiomyocyte proliferation/expansion, factors added day 10 to day 16. To be noted: CHIR 1 μM or IGF2 25 ng/ml. Here is the method: The EBs were dissociated as described above. The following antibodies were used for staining: mouse anti-Ki67 (DAKO, 1:100) and rabbit anti-cardiac isoform of cTNT (ThermoFisher Scientific, 1:500). The following secondary antibodies were used for detection: donkey anti-mouse IgG-APC (BD Pharmigen™, 1:500), or donkey anti-rabbit IgG-PE (Jackson ImmunoResearch, 1:500). Detailed antibody information is described in the Key Resources Table. Cells were fixed for 20 mins at 4 C with 4% PFA in PBS followed by permeabilization using 90% methanol for 20 mins at 4° C. Cells were washed with PBS containing 0.5% BSA (Sigma) and stained with unconjugated primary antibodies in FACS buffer overnight at 4° C. Stained cells were washed with PBS with 0.5% BSA and stained with secondary antibodies in FACS buffer for 30 mins at 4° C. Stained cells were analyzed using the LSR II Flow cytometer (BD PharMingen™). Data were analyzed using FlowJo™ software (Tree Star). At day 5, the EBs were transferred to StemPro™-34 with rhVEGF (5 ng/ml) for another 5 days and then to DMEM high glucose (Life Technologies) with 0.5 mg/mL human serum albumin (Sigma), ascorbic acid, transferrin, insulin (10 ng/ml, Sigma), CHIR (1 μM, Bio-Techne), and IGF2 (25 ng/ml, Bio-Techne) from day 10 to day 16. […] The cells were then harvested, counted, and analyzed for expression of compact and trabecular genes by RT-qPCR. […]

Test [3] concerns compact ventricular populations. Description: cTNT and Ki67 flow cytometry after 2 days XAV (day 18). Here is the method:
The EBs were dissociated by incubation in Collagenase type 2 (0.5 mg/ml, Worthington) in HANKs buffer overnight at room temperature followed by TrypLE™ for 5 mins at 37° C. The following antibodies were used for staining: anti-SIRPa-PeCy7 (Biolegend, 1:1000), anti-CD36-FITC (BD PharMingen™, 1:200), anti-LDLR-BV421 (BD PharMingen™, 1:100), anti-cardiac isoform of cTNT (ThermoFisher Scientific, 1:2000), or anti-myosin light chain 2 (Abcam,1:1000). For unconjugated primary antibodies, the following secondary antibodies were used for detection: goat anti-mouse IgG-APC (BD PharMingen™, 1:500), or donkey anti-rabbit IgG-PE (Jackson ImmunoResearch, 1:500). Detailed antibody information is described in the Key Resources Table. For cell-surface marker analyses, cells were stained for 30 min at 4° C. in FACS buffer consisting of PBS with 5% fetal calf serum (FCS) (Wisent) and 0.02% sodium azide. For intracellular staining, cells were fixed for 20 mins at 4° C. with 4% PFA in PBS followed by permeabilization using 90% methanol for 20 mins at 4° C. Cells were washed with PBS containing 0.5% BSA (Sigma) and stained with unconjugated primary antibodies in FACS buffer overnight at 4° C. Stained cells were washed with PBS with 0.5% BSA and stained with secondary antibodies in FACS buffer for 30 mins at 4° C. Stained cells were analyzed using the LSR II Flow cytometer (BD PharMingen™). Data were analyzed using FlowJo™ software (Tree Star).
The EBs were dissociated as described above. The following antibodies were used for staining: mouse anti-Ki67 (DAKO, 1:100) and rabbit anti-cardiac isoform of cTNT (ThermoFisher Scientific, 1:500). The following secondary antibodies were used for detection: donkey anti-mouse IgG-APC (BD Pharmigen™, 1:500), or donkey anti-rabbit IgG-PE (Jackson ImmunoResearch, 1:500). Detailed antibody information is described in the Key Resources Table. […] Stained cells were analyzed using the LSR II Flow cytometer (BD PharMingen™). Data were analyzed using FlowJo™ software (Tree Star). […]
A general note: A flow cytometer gives signals particle by particle.

In test [4] the test system is CD36^+SIRPA^+ compact cardiomyocytes. The test is described as follows: Flow cytometric analyses of CD36 and SIRPA expression. Here is the method:
The EBs were dissociated by incubation in Collagenase type 2 (0.5 mg/ml, Worthington) in HANKs buffer overnight at room temperature followed by TrypLE™ for 5 mins at 37° C. The following antibodies were used for staining: anti-SIRPa-PeCy7 (Biolegend, 1:1000), anti-CD36-FITC (BD PharMingen™, 1:200), anti-LDLR-BV421 (BD PharMingen™, 1:100), anti-cardiac isoform of cTNT (ThermoFisher Scientific, 1:2000), or anti-myosin light chain 2 (Abcam,1:1000). For unconjugated primary antibodies, the following secondary antibodies were used for detection: goat anti-mouse IgG-APC (BD PharMingen™, 1:500), or donkey anti-rabbit IgG-PE (Jackson ImmunoResearch, 1:500). Detailed antibody information is described in the Key Resources Table. […] Stained cells were analyzed using the LSR II Flow cytometer (BD PharMingen™). Data were analyzed using FlowJo™ software (Tree Star).
To evaluate the capacity of the day 18 compact cardiomyocytes to undergo FAO, we analyzed them for expression of the fatty acid transporter CD36, which is essential for transporting fatty acid into cells (FIG. 2B). Given that most mature cardiomyocytes in the human heart express CD36, flow cytometric analyses of this transporter would provide rapid quantitative measure of the maturation status of these cells.

The test system of test [5] is hPSC-derived ventricular cardiomyocytes. Description: HEY2/ANF immunostaining of day 16 ventricular population. The following applies: day 16 population. Here is the method:
The EBs were dissociated as described above and the cells were plated onto 24 well culture dishes pre-coated with Matrigel™ (25% v/v, BD PharMingen™). Cells were cultured for 2-3 days and were fixed with 4% PFA in PBS for 15 min at room temperature. Cells were permeabilized and blocked with PBS containing 5% donkey serum, 0.1% TritonX™. The following antibodies were used for staining: mouse anti-cardiac isoform of cTNT (ThermoFisher Scientific, 1:200), rabbit anti-human HEY2 (Proteintech, 1:100), mouse anti-human ANF (Abcam, 1:100), rabbit anti-human cTNT (Abcam, 1:200), or rabbit anti-human CD90 (Abcam, 1:200). For detecting unconjugated primary antibodies, the following secondary antibodies were used: donkey anti-mouse IgG-Alexa Fluor™ 488 (ThermoFisher, 1:500), donkey anti-rabbit IgG-Alexa Fluor™ 555 (ThermoFisher, 1:500), donkey anti-rabbit IgG-Alexa488 (ThermoFisher, 1:500), donkey anti-mouse IgG-Alexa Fluor™ 555 (ThermoFisher, 1:500). Detailed antibody information is described in the Key Resources Table. Cells were stained with primary antibodies in staining buffer consisting of PBS with 0.1% TritonX, and 5% donkey serum overnight at 4° C. The stained cells were washed with PBS. […] Stained cells were analyzed using an EVOS Microscope (ThermoFisher) and Zeiss LSM700 confocal microscope (Zeiss).

Consider `CCCCCCCCCCCCCCCC(=O)O` [palmitate], for which, in the test on FAO-related genes, the “expression of mitochondrial/electron transport chain genes ATP5A1, COX7A1, CKMT2” value was “no effect”. In the test with FAO-related genes (vs untreated populations), the “expression of FAO pathway components CD36, FABP3, CPT1B, MLYCD” value was “no effect” and the “level of ACC2” value is reported as “no effect”.
As for `Cc1c[nH]c(-c2cnc(NCCNc3ccc(C#N)cn3)nc2-c2ccc(Cl)cc2Cl)n1` [CHIR, 6-((2-((4-(2,4-Dichlorophenyl)-5-(4-methyl-1H-imidazol-2-yl)pyrimidin-2-yl)amino)ethyl)amino)nicotinonitrile], in test [1], the “expression of ANF” value is given as “decrease”, the “expression of BMP10” value was “decrease”, the “expression of HEY2” value is listed as “little effect” and the “expression of MYCN” value was “significant increase”. Also, in test [1], the “expression of the fatty acid transporter CD36” value is “reduced” and the “expression of the glucose transporter GLUT1” value was “increased”. The “proportion of Ki67^−cTNT^+ cardiomyocytes detected at day 16” value in test [2] was “significant increase”. In addition, the “proportion of cTNT^+ cells in the population” value in test [3] (XAV(−) vs. ventricular control, day 18) is recorded as “reduction”.
With `CC(C)(Sc1ccc(CCN(CCCCC2CCCCC2)C(=O)NC2CCCCC2)cc1)C(=O)O` [GW7647], the “size of CD36+ population detected at day 32” value in test [4] (1 μM added to day 18 CMs) is recorded as “significant increase”.
Turning to insulin-like growth factor 2 [IGF2], in test [1], the “expression of ANF” value was “no effect”, the “expression of BMP10” value is “no effect”, the “expression of HEY2” value is reported as “no effect” and the “expression of MYCN” value was “no effect”. In test [2], the “proportion of Ki67^−cTNT^+ cardiomyocytes detected at day 16” value is “significant increase”.
For the compound neuregulin 1 [NRG], in test [1], the “expression of ANF” value is listed as “increased” and the “expression of HEY2” value is listed as “reduced”. Moreover, in test [5], the “ANF+ cells by immunostaining” value was “presence” and the “HEY+ compact cells by immunostaining” value is reported as “lack”.
Consider `O=c1[nH]c(-c2ccc(C(F)(F)F)cc2)nc2c1CSCC2` [XAV, 2-(4-(trifluoromethyl)phenyl)-7,8-dihydro-5H-thiopyrano[4,3-d]pyrimidin-4-ol], for which, in test [3] (XAV following the CHIR/IGF2-induced proliferative stage), the “proportion of Ki67^+ cells in the population” value is given as “significantly reduced”. Besides, in test [3] (XAV for 2 days after CHIR/IGF2), the “proportion of the non-cardiomyocytes” value was “reduction”.
On to `N[C@@H](Cc1cc(I)c(Oc2ccc(O)c(I)c2)c(I)c1)C(=O)O` [thyroid hormone (T3), triiodothyronine], for which the “effect on CD36 expression among other pathways tested” value in test [4] (only observed in the presence of PPARα signaling) is “largest effect”.
